The experiment concerns the target T1, phosphopantetheinyl transferase Sfp (Bacillus subtilis, UniProt P39135).
T1 sequence (P39135 1-224): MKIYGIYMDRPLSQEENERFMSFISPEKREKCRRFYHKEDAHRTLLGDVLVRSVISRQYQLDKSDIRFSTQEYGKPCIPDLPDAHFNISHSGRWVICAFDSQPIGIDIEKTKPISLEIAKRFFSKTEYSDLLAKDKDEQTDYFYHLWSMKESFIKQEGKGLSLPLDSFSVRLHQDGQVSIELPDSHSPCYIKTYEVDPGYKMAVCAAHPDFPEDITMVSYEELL
As to the kind of experiment: FRET-quench phosphopantetheinyl transferase assay. The class given is biochemical.

The molecule `N=C1Sc2ccccc2C2=NCCCN12` [PD 404,182] returned an IC50 of 3.2 µM.

With `Clc1ccc(C(c2ccc(Cl)cc2)n2cc[n+](CC(OCc3ccc(Cl)cc3Cl)c3ccc(Cl)cc3Cl)c2)cc1` (centres unmarked) [calmidazolium chloride], the 50% inhibitory concentration (IC50) came to 20 µM.

The values are drawn from PMC2948233 (Organic & biomolecular chemistry, 2010).
